According to patent US10125121B2, “FYN kinase inhibitors” (ROTTAPHARM BIOTECH S.R.L., priority 2015, dated 2018):

The compounds below were run against active FYN (human recombinant, 62.7 kDa) (Homo sapiens, UniProt P06241) (assay: In vitro kinase assay (Z′-LYTE FRET)). Details: read-out: IC50(nM) FYN INHIBITION.
Type: biochemical
Method: Assays to determine the kinase inhibitory activity of compounds were performed using an automatic liquid handling device (Microlab STAR Hamilton) and Z′-LYTE™ Kinase Assay Platform, a Fluorescence Resonance Energy Transfer (FRET)-based assay platform compatible with high-throughput screening (HTS) applications. The assay employs a fluorescence-based, coupled-enzyme format and utilizes the differential sensitivity of phosphorylated and non-phosphorylated peptides to proteolytic cleavage.
All reagents were diluted in reaction buffer and the kinase reaction was carried out in a total volume of 10 μl, for 60 minutes at 25° C. The 0% Phosphorylation (i.e. no ATP) and 100% Phosphorylation (i.e. synthetically phosphorylated peptide supplied) Assay Controls, included in each plate, allowed to calculate the percent phosphorylation achieved in the specific reaction well. The 0% Inhibition and 0% Phosphorylation (i.e. 100% Inhibition) Controls define the dynamic range in the screen. At the end of incubation, a secondary reaction (the Development Reaction) started by adding 5 μl of Development Reagent, containing a site-specific protease that recognizes and cleaves non-phosphorylated peptides, and was interrupted after 60 minutes with 5 μl/sample of Stop Reagent.
The compounds were tested in a range of concentrations 10^−6-10^−9 M.
Results are expressed as percentage of inhibition and the IC50 values were calculated by non-linear curve fitting using GraphPad™ Prism software.

Sequence of active FYN (human recombinant, 62.7 kDa) (P06241 whole entry): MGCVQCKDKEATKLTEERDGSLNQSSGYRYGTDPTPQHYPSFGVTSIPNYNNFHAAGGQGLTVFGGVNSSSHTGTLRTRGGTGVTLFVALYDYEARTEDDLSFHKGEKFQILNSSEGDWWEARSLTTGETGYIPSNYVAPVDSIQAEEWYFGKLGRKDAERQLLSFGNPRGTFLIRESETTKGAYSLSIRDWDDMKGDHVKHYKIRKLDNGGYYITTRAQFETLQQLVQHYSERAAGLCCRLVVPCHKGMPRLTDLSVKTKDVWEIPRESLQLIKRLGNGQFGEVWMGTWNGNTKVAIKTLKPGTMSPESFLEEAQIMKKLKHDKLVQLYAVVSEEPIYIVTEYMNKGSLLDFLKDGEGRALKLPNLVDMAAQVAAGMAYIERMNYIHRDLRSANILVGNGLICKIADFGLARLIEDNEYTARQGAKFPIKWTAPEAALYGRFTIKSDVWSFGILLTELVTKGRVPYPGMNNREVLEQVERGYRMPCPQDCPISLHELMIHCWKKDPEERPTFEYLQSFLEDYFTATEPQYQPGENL

| IC50 | SMILES |
| --- | --- |
| 23 nM | O=C(Nc1ccc(CN2CCN(c3nccc(Nc4cc(C5CC5)[nH]n4)n3)CC2)cc1)c1ccccc1Cl [Compound 5, 2-chloro-N-(4-((4-(4-((5-cyclopropyl-1H-pyrazol-3-yl)amino)pyrimidin-2-yl)piperazin-1-yl)methyl)phenyl)benzamide] |
| 70 nM | O=C(Nc1ccc(CN2CCN(c3nccc(Nc4cc(C5CC5)[nH]n4)n3)CC2)cc1)c1ccccc1F [Compound 3, N-(4-((4-(4-((5-cyclopropyl-1H-pyrazol-3-yl)amino)pyrimidin-2-yl)piperazin-1-yl)methyl)phenyl)-2-fluorobenzamide] |
| 1100 nM | O=C(Nc1ccc(CN2CCN(c3nccc(Nc4cc(C5CC5)[nH]n4)n3)CC2)cc1)c1ccccn1 [Compound 24, N-(4-((4-(4-((5-cyclopropyl-1H-pyrazol-3-yl)amino)pyrimidin-2-yl)piperazin-1-yl)methyl)phenyl)picolinamide] |
| 122 nM | CS(=O)(=O)c1cccc(C(=O)Nc2ccc(CN3CCN(c4nccc(Nc5cc(C6CC6)[nH]n5)n4)CC3)cc2)c1 [Compound 16, N-(4-((4-(4-((5-cyclopropyl-1H-pyrazol-3-yl)amino)pyrimidin-2-yl)piperazin-1-yl)methyl)phenyl)-3-(methylsulfonyl)benzamide] |
| 150 nM | COc1ccccc1C(=O)Nc1ccc(CN2CCN(c3nccc(Nc4cc(C5CC5)[nH]n4)n3)CC2)cc1 [Compound 7, N-(4-((4-(4-((5-cyclopropyl-1H-pyrazol-3-yl)amino)pyrimidin-2-yl)piperazin-1-yl)methyl)phenyl)-2-methoxy-benzamide] |
| 96 nM | O=C(Nc1ccc(CN2CCN(c3nccc(Nc4cc(C5CC5)[nH]n4)n3)CC2)cc1)c1ccccc1 [Compound 1, N-(4-((4-(4-((5-cyclopropyl-1H-pyrazol-3-yl)amino)pyrimidin-2-yl)piperazin-1-yl)methyl)phenyl)benzamide] |
| 237 nM | COc1ncccc1C(=O)Nc1ccc(CN2CCN(c3nccc(Nc4cc(C5CC5)[nH]n4)n3)CC2)cc1 [Compound 28, N-(4-((4-(4-((5-cyclopropyl-1H-pyrazol-3-yl)amino)pyrimidin-2-yl)piperazin-1-yl)methyl)phenyl)-2-methoxy-nicotinamide] |
| 86 nM | Cc1nc(C(=O)Nc2ccc(CN3CCN(c4nccc(Nc5cc(C6CC6)[nH]n5)n4)CC3)cc2)co1 [Compound 20, N-(4-((4-(4-((5-cyclopropyl-1H-pyrazol-3-yl)amino)pyrimidin-2-yl)piperazin-1-yl)methyl)phenyl)-2-methyloxazole-4-carboxamide] |
| 220 nM | COc1cc(C)ccc1C(=O)Nc1ccc(CN2CCN(c3nccc(Nc4cc(C5CC5)[nH]n4)n3)CC2)cc1 [Compound 15, N-(4-((4-(4-((5-cyclopropyl-1H-pyrazol-3-yl)amino)pyrimidin-2-yl)piperazin-1-yl)methyl)phenyl)-2-methoxy-4-methyl benzamide] |
| 282 nM | O=C(Nc1ccc(CN2CCN(c3nccc(Nc4cc(C5CC5)[nH]n4)n3)CC2)cc1)c1cnccn1 [Compound 35, N-(4-((4-(4-((5-cyclopropyl-1H-pyrazol-3-yl)amino)pyrimidin-2-yl)piperazin-1-yl)methyl)phenyl)pyrazine-2-carboxamide] |
| 16 nM | O=C(Nc1ccc(CN2CCN(c3nccc(Nc4cc(C5CC5)[nH]n4)n3)CC2)cc1)c1ccc(F)cc1F [Compound 11, N-(4-((4-(4-((5-cyclopropyl-1H-pyrazol-3-yl)amino)pyrimidin-2-yl)piperazin-1-yl)methyl)phenyl)-2,4-difluoro-Benzamide] |
| 105 nM | Cc1cccnc1C(=O)Nc1ccc(CN2CCN(c3nccc(Nc4cc(C5CC5)[nH]n4)n3)CC2)cc1 [Compound 25, N-(4-((4-(4-((5-cyclopropyl-1H-pyrazol-3-yl)amino)pyrimidin-2-yl)piperazin-1-yl)methyl)phenyl)-3-methyl-picolinamide] |

The next lines start with the compound.

| SMILES | IC50 |
| --- | --- |
| O=C(Nc1ccc(CN2CCN(c3nccc(Nc4cc(C5CC5)[nH]n4)n3)CC2)cc1)NC1CCCC1 [Compound 49, 1-cyclopentyl-3-(4-((4-(4-((3-cyclopropyl-1H-pyrazol-5-yl)amino)pyrimidin-2-yl)piperazin-1-yl)methyl)phenyl)urea] | 69 nM |
| O=C(Nc1ccc(CN2CCN(c3nccc(Nc4cc(C5CC5)[nH]n4)n3)CC2)cc1)c1ccc(C(F)(F)F)cc1 [Compound 10, N-(4-((4-(4-((5-cyclopropyl-1H-pyrazol-3-yl)amino)pyrimidin-2-yl)piperazin-1-yl)methyl)phenyl)-4-(trifluoromethyl)benzamide] | 950 nM |
| C[C@H]1CN(c2nccc(Nc3cc(C4CC4)[nH]n3)n2)CCN1Cc1ccc(NC(=O)c2cccnc2C(F)(F)F)cc1 [Compound 31, (S)-N-(4-((4-(4-((5-cyclopropyl-1H-pyrazol-3-yl)amino)pyrimidin-2-yl)-2-methyl-piperazin-1-yl)methyl)phenyl)-2-(trifluoromethyl)nicotinamide] | 667 nM |
| O=C(Nc1ccc(OC(F)(F)F)cc1)c1ccc(CN2CCN(c3nccc(Nc4cc(C5CC5)[nH]n4)n3)CC2)cc1 [Compound 37, 4-((4-(4-((5-cyclopropyl-1H-pyrazol-3-yl)amino)pyrimidin-2-yl)piperazin-1-yl)methyl)-N-(4-(trifluoromethoxy)phenyl)benzamide] | > 1000 nM |
| Cc1nc(C(=O)Nc2ccc(CN3CCN(c4nccc(Nc5cc(C6CC6)[nH]n5)n4)CC3)nc2)c(C(F)(F)F)o1 [Compound 22, N-(6-((4-(4-((5-cyclopropyl-1H-pyrazol-3-yl)amino)pyrimidin-2-yl)piperazin-1-yl)methyl)pyridin-3-yl)-2-methyl-5-(trifluoromethyl)oxazole-4-carboxamide] | 424 nM |
| O=C(Nc1ccc(CN2CCN(c3nccc(Nc4nnc(C5CC5)o4)n3)CC2)cc1)c1ccccc1C(F)(F)F [Compound 44, N-(4-((4-(4-((5-cyclopropyl-1,3,4-oxadiazol-2-yl)amino)pyrimidin-2-yl)piperazin-1-yl)methyl)phenyl)-2-(trifluoromethyl)benzamide] | > 1000 nM |
| Cc1cc(Nc2ccnc(N3CCN(Cc4ccc(NC(=O)c5ccccc5C(F)(F)F)cc4)CC3)n2)[nH]n1 [Compound 47, N-(4-((4-(4-((3-methyl-1H-pyrazol-5-yl)amino)pyrimidin-2-yl)piperazin-1-yl)methyl)phenyl)-2-(trifluoromethyl)benzamide] | 41 nM |
| C[C@@H]1CN(c2nccc(Nc3cc(C4CC4)[nH]n3)n2)CCN1Cc1ccc(NC(=O)c2cccnc2C(F)(F)F)cc1 [Compound 30, (R)-N-(4-((4-(4-((5-cyclopropyl-1H-pyrazol-3-yl)amino)pyrimidin-2-yl)-2-methylpiperazin-1-yl)methyl)phenyl)-2-(trifluoromethyl)nicotinamide] | 180 nM |
| O=C(Nc1ccc(CN2CCN(c3nccc(Nc4cc(C5CC5)[nH]n4)n3)CC2)cc1)c1cccc(C(F)(F)F)c1 [Compound 9, N-(4-((4-(4-((5-cyclopropyl-1H-pyrazol-3-yl)amino)pyrimidin-2-yl)piperazin-1-yl)methyl)phenyl)-3-(trifluoromethyl)benzamide] | > 1000 nM |
| O=C(Nc1cccc(C(F)(F)F)c1)c1ccc(CN2CCN(c3nccc(Nc4cc(C5CC5)[nH]n4)n3)CC2)cc1 [Compound 38, 4-((4-(4-((5-cyclopropyl-1H-pyrazol-3-yl)amino)pyrimidin-2-yl)piperazin-1-yl)methyl)-N-(3-(trifluoromethyl)-phenyl)benzamide] | > 1000 nM |
| O=C(Nc1ccc(CN2CCN(c3nccc(Nc4cc(C5CC5)[nH]n4)n3)CC2)nn1)c1ccccc1C(F)(F)F [Compound 42, N-(6-((4-(4-((5-cyclopropyl-1H-pyrazol-3-yl)amino)pyrimidin-2-yl)piperazin-1-yl)methyl)pyridazin-3-yl)-2-(trifluoromethyl)benzamide] | 663 nM |
| Cc1cc(Nc2cc(C3CC3)n[nH]2)nc(N2CCN(Cc3ccc(NC(=O)c4ccccc4C(F)(F)F)cc3)CC2)n1 [Compound 46, N-(4-((4-(4-((5-cyclopropyl-1H-pyrazol-3-yl)amino)-6-methylpyrimidin-2-yl)piperazin-1-yl)methyl)phenyl)-2-(trifluoromethyl)benzamide] | 29 nM |
| CCc1cc(NC(=O)c2ccccc2F)ccc1CN1CCN(c2nc(C)cc(Nc3cc(C4CC4)[nH]n3)n2)CC1 [Compound 19, N-(4-((4-(4-((5-cyclopropyl-1H-pyrazol-3-yl)amino)-6-methylpyrimidin-2-yl)piperazin-1-yl)methyl)-3-ethylphenyl)-2-fluorobenzamide] | 1020 nM |
| COc1ccnc(Nc2ccnc(N3CCN(Cc4ccc(NC(=O)c5ccccc5C(F)(F)F)cc4)CC3)n2)c1 [Compound 45, N-(4-((4-(4-((4-methoxypyridin-2-yl)amino)pyrimidin-2-yl)piperazin-1-yl)methyl)phenyl)-2-(trifluoromethyl)benzamide] | 441 nM |
| O=C(Nc1ccc(C(F)(F)F)cc1)c1ccc(CN2CCN(c3nccc(Nc4cc(C5CC5)[nH]n4)n3)CC2)cc1 [Compound 39, 4-((4-(4-((5-cyclopropyl-1H-pyrazol-3-yl)amino)pyrimidin-2-yl)piperazin-1-yl)methyl)-N-(4-(trifluoromethyl)phenyl)-benzamide] | > 1000 nM |
| O=S(=O)(Nc1ccc(CN2CCN(c3nccc(Nc4cc(C5CC5)[nH]n4)n3)CC2)cc1)c1ccccc1F [Compound 40, N-(4-((4-(4-((5-cyclopropyl-1H-pyrazol-3-yl)amino)pyrimidin-2-yl)piperazin-1-yl)methyl)phenyl)-2-fluorobenzene-sulfonamide] | 280 nM |
